# Reference: BindingDB's records for doi:10.1021/jm034088d (Abbott Laboratories, 2003)
# Target: Tyrosine-protein phosphatase non-receptor type 11, SHP-2 (Homo sapiens) (UniProt Q06124)
# Experiment: Inhibitory activity against SH-domain containing phosphotyrosine phosphatase-2 (Tyrosine phosphatase SHP2) was determined
# Chain of Tyrosine-protein phosphatase non-receptor type 11, SHP-2 (Homo sapiens) (Q06124 whole entry, looked up): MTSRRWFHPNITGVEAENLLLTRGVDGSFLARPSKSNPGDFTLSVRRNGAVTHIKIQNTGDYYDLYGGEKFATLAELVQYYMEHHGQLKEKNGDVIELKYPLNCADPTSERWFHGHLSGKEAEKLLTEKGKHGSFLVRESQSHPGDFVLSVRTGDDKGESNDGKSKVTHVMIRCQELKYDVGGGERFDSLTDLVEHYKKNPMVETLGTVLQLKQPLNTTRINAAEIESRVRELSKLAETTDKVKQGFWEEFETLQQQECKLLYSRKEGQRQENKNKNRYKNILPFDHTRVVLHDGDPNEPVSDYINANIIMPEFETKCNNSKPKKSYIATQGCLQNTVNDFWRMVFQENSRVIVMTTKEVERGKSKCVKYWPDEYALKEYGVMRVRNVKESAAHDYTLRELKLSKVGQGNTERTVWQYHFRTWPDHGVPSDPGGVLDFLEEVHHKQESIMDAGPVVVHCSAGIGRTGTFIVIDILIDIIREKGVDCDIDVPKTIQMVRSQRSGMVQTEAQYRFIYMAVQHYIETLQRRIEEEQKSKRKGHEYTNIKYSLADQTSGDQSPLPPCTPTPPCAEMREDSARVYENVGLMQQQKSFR
row,Compound,Ki
1,CCc1cc(CC(NC(C)=O)C(=O)NCCCCOc2cc(Cl)cc(O)c2C(=O)OC)ccc1N(C(=O)C(=O)O)c1ccccc1C(=O)O (configuration not stated) [2-[4-(2-Acetylamino-3-{4-[(2-carboxy-phenyl)-oxalyl-amino]-3-ethyl-phenyl}-propionylamino)-butoxy]-4-chloro-6-hydroxy-benzoic acid methyl ester],> 3 µM
2,C=CCOC(=O)N[C@@H](Cc1ccc(N(C(=O)C(=O)O)c2ccccc2C(=O)O)cc1)C(=O)NCCCCOc1cccc(O)c1C(=O)OC [(S)-2-(N-(4-(2-(allyloxycarbonylamino)-3-(4-(3-hydroxy-2-(methoxycarbonyl)phenoxy)butylamino)-3-oxopropyl)phenyl)-1-carboxyformamido)benzoic acid],96 µM
